Source: EPA's ToxValDB 9.5 (doi:10.2903/j.efsa.2010.1873)
≈ marks a conversion by molar mass, not a printed value.

Tests used:
[1] = system: Anas platyrhynchos; conditions: oral, mortality
[2] = system: Colinus virginianus
[3] = system: Rattus norvegicus
[4] = system: Canidae; conditions: subchronic; duration: 90 days; oral; Dog Other; clinical chemistry
[5] = system: Oncorhynchus mykiss; conditions: chronic/long-term; duration: 21 days; mortality
[6] = system: Lepomis macrochirus; conditions: acute; duration: 96 hours; mortality
[7] = system: Apis mellifera; conditions: acute; duration: 48 hours; oral; unspecified; mortality
[8] = system: Daphnia magna; conditions: chronic/long-term; duration: 21 days; reproduction
[9] = system: Anabaena flosaquae; conditions: acute; duration: 72 hours; biomass
[10] = system: Landoltia sp.; conditions: acute; duration: 7 days; biomass
[11] = system: Bibionidae; conditions: chronic/long-term; duration: 28 days; development
[12] = system: Tagia sp.; conditions: acute, duration: 14 days
[13] = system: Aphidius rhopalosiphi; assay: LR50; higher = less toxic; conditions: not reported; mortality

## N#CN=C(N)N [Cyanoguanidine]
[1]; acute, unspecified
  LD50: > 2000 mg/kg-day

## N#CN [Cyanamide]
[2]; acute, oral, diet, mortality
  LC50: > 1040 mg/kg-day
[2]; acute, oral, mortality
  LD50: 350 mg/kg-day
[2]; reproduction developmental
  NOEC: 13.3 mg/kg-day
[3]; acute, oral, mortality
  LD50: 223 mg/kg-day
[3]; developmental, development
  NOAEL: 5 mg/kg-day
[3]; reproduction developmental, reproduction
  NOEL: 3.75 mg/kg-day
[4]
  NOAEL: 0.6 mg/kg-day
[5]
  NOEC: 3.7 mg/L
[6]
  LC50: 43.1 µg/mL (≈ 1030 µM)
[7]
  LD50: > 10 µg/piece
[8]
  NOEC: 0.1 mg/L
[9]
  NOEC: 0.05 mg/L
[10]
  NOEC: 0.5 mg/L
[11]
  NOEC: 6.6 mg/L
[12]; body weight
  NOEC: 55.7 mg/kg
[12]; mortality
  LC50: > 112 mg/kg
[1]; short-term, feed
  LC50: > 435 mg/kg-day
[13]
  LR50: 432 g/ha
